# Where no end group is shown, it is not given here.
# Test system: E. coli ATCC strain 25922
# Experiment: Minimal Inhibitory Concentration, microtiter broth dilution
# Format: cell-based
# Details: ATCC strain 25922
# How it was run: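 Broth microdilution per NCCLS M7-T2: final peptide levels 0.25 to 256 μg/ml (twofold steps), inoculum 1-5×10^5 CFUs/ml in full-strength Mueller Hinton broth. MIC read as lowest concentration leaving the well clear after 16-20 hours at 37° C.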
sequence,measurement,value
GIGKFLKKAKKFGKAFVKILKK [MSI-344],MIC E. coli ATCC 25922,8 µg/mL

# Source: patent US6348445B1, “Biologically active peptides with reduced toxicity in animals and a method for preparing same” (priority 1992, dated 2002)
